What was measured:
HT-1080 [1] = assay: Antiproliferative activity against HT1080 cells; settings: Homo sapiens
[2] = Cmax in mouse at 30 mg/kg, po; type: ADME, organism-based; set-up: dose 30 mg/kg, route oral; settings: in vivo
[3] = Oral bioavailability in mouse at 30 mg/kg, po; type: ADME, organism-based; settings: in vivo
[4] = Half life in mouse at 10 mg/kg, iv; type: ADME, organism-based; set-up: dose 10 mg/kg, route intravenous; settings: in vivo
[5] = Volume of distribution in mouse at 10 mg/kg, iv; type: ADME, organism-based; set-up: dose 10 mg/kg, route intravenous; settings: in vivo, read-out: Vdss
[6] = Clearance in mouse at 10 mg/kg, iv; type: ADME, organism-based; set-up: dose 10 mg/kg, route intravenous; settings: in vivo
HT-1080 [7] = assay: Antiproliferative activity against HT1080 cells in presence of 40 mg/ml HSA; settings: Homo sapiens

Compound	EC50 (HT-1080 [1])	Cmax [2]	bioavailability [3]	half-life [4]	Vd [5]	clearance [6]	EC50 (HT-1080 [7])
CCc1ccc(NS(=O)(=O)c2ccc(F)cc2)c(C(=O)O)c1C	4.9 µM	–	–	–	–	–	–
CCc1ccc(NS(=O)(=O)c2ccc(F)cc2)c(C(=O)O)c1OC	1.4 µM	–	–	–	–	–	–
CCc1ccc(NS(=O)(=O)c2ccc(F)cc2CCCN(CC)CC)c(C(=O)O)c1OCCN	30 µM	–	–	–	–	–	–
CCc1ccc(NS(=O)(=O)c2ccccc2NCCCCN(C)C)c(C(=O)O)c1OC	0.25 µM	5900 nM	31%	18 min	0.8 L/kg	35 mL/min/kg	0.37 µM
CCc1ccc(NS(=O)(=O)c2ccc(F)cc2)c(C(=O)O)c1OCCN	–	2400 nM	38%	18 min	1.1 L/kg	50 mL/min/kg	–
CCc1ccc(NS(=O)(=O)c2ccccn2)c(C(=O)O)c1C	12 µM	34000 nM	86%	144 min	5.5 L/kg	26.7 mL/min/kg	–
CCc1ccc(NS(=O)(=O)c2ccc(F)cc2/C=C\CN(CC)CC)c(C(=O)O)c1OC	0.07 µM	100 nM	16%	12 min	13.8 L/kg	675 mL/min/kg	0.15 µM
COc1c(-c2ccoc2)ccc(NS(=O)(=O)c2ccc(F)cc2NCCCN(C)C)c1C(=O)O	0.32 µM	–	–	–	–	–	2.9 µM
CCN(CC)C/C=C\c1cc(F)ccc1S(=O)(=O)Nc1ccc(-c2ccoc2)c(OC)c1C(=O)O	0.06 µM	–	–	–	–	–	0.2 µM
COc1c(-c2ccoc2)ccc(NS(=O)(=O)c2ccc(F)cc2)c1C(=O)O	3.8 µM	–	–	–	–	–	–
CCc1ccc(NS(=O)(=O)c2ccccc2NCCC2CCCN2C)c(C(=O)O)c1OC (centres undefined)	0.48 µM	900 nM	13%	18 min	2 L/kg	83.3 mL/min/kg	1.9 µM
CCCc1ccccc1S(=O)(=O)Nc1ccc(CC)c(OCCN)c1C(=O)O	83 µM	–	–	–	–	–	–
COc1c(-c2ccoc2)ccc(NS(=O)(=O)c2ccc(F)cc2Br)c1C(=O)O	11 µM	–	–	–	–	–	–
CCc1ccc(NS(=O)(=O)c2ccccc2NCCCN2CCCCC2C)c(C(=O)O)c1OC (centres undefined)	0.37 µM	–	–	–	–	–	1.2 µM

From ChEMBL document CHEMBL1144635, “Lead optimization of methionine aminopeptidase-2 (MetAP2) inhibitors containing sulfonamides of 5,6-disubstituted anthranilic acids” (Bioorg Med Chem Lett, 2007)
